Tests used:
A375 xenografts = assay: γ-H2AX and total H2AX immunoassays on cells from drug-treated A375 xenograft mouse models; settings: A375 xenografts in vivo; PARPi given simultaneously or four hours before CPT-11
Protocol: Pierce REACTI-BIND plates (96-well) (Thermo Scientific) were coated with anti-7-H2AX antibody (Millipore) diluted to a concentration of 4 μg/mL in 0.1 M pH 9.6 carbonate buffer (Sigma-Aldrich, St. Louis, Mo.), 100 μL/well, for 2 hours at 37° C. The γ-H2AX synthetic peptide standard or a whole-cell extract was added to each well and incubated for antigen capture overnight at 4° C. Plates were incubated with 100 μL/well of 2 μg/mL anti-histone H2AX rabbit polyclonal antibody (Abcam) diluted in 2% bovine serum albumin (BSA)/phosphate buffered saline (PBS) supplemented with 1 μL/mL mouse serum for 2 hours (h) at 24° C. Subsequently, 100 μL/well HRP-conjugated affinity-purified goat anti-rabbit (KPL) was added at a final concentration of 1 μg/mL diluted in 2% BSA/PBS, supplemented with 1 μL/mL mouse serum, and incubated for 1 hour at 24° C. […] M200 plate reader (Tecan Group Ltr., Maennedorf, Switzerland). A standard curve was generated by plotting the RLU (relative light unit) values that were obtained for a range of concentrations of the γ-H2AX standard peptide (FIG. 1A). The average γ-H2AX concentration for each cell extract was then determined using the standard curve (FIG. 1B).
A375 xenograft mouse models were treated with vehicle (control), CPT-11 alone, a PARP inhibitor alone, a combination of CPT-11 and the PARP inhibitor (PARPi) administered simultaneously, or a combination of CPT-11 and the PARPi, wherein the PARPi is administered four hours before CPT-11 is administered. […] Cells from the treated mice were quantified for γ-H2AX and total H2AX using the immunoassays of Examples 1 and 2, respectively, and the ratio of γ-H2AX to total H2AX was determined.

[1] = tested on: tumors of the human breast carcinoma cell line MX1; assay: γ-H2AX and total H2AX immunoassays on tumor biopsies of drug-treated nude mice with MX1 tumors; format: in vivo
Protocol: Pierce REACTI-BIND plates (96-well) (Thermo Scientific) were coated with anti-7-H2AX antibody (Millipore) diluted to a concentration of 4 μg/mL in 0.1 M pH 9.6 carbonate buffer (Sigma-Aldrich, St. Louis, Mo.), 100 μL/well, for 2 hours at 37° C. The γ-H2AX synthetic peptide standard or a whole-cell extract was added to each well and incubated for antigen capture overnight at 4° C. Plates were incubated with 100 μL/well of 2 μg/mL anti-histone H2AX rabbit polyclonal antibody (Abcam) diluted in 2% bovine serum albumin (BSA)/phosphate buffered saline (PBS) supplemented with 1 μL/mL mouse serum for 2 hours (h) at 24° C. […] Finally, 100 μL/well of freshly prepared SUPERSIGNAL ELISA Pico chemiluminescent substrate (Thermo Scientific, Waltham, Mass.) was added to the plate and immediately read on a TECAN INFINITE M200 plate reader (Tecan Group Ltr., Maennedorf, Switzerland). […] The average γ-H2AX concentration for each cell extract was then determined using the standard curve (FIG. 1B).
Pierce REACTI-BIND plates (96-well) were coated with total anti-H2A core protein HIST1H2AC monoclonal antibody (Novus, St. Charles, Mo.) diluted to a concentration of 4 μg/mL in 0.1 M pH 9.6 carbonate buffer (Sigma-Aldrich), 100 μL/well, for 2 hours at 37° C. […] The average total H2AX concentration for each cell extract was then determined using the standard curve (FIG. 2B). […]

MCF7 cells = assay: γ-H2AX and total H2AX immunoassays in MCF7 cells treated with SN38 and ATR inhibitors; format: cell-based, human; settings: SN38 0.25 μM plus ATRi 1 or 0.5 μM
HT29 cells = assay: Ratio of γ-H2AX to total H2AX in HT29 cells treated 1 hour in vitro; format: cell-based, human
Protocol: Pierce REACTI-BIND plates (96-well) (Thermo Scientific) were coated with anti-7-H2AX antibody (Millipore) diluted to a concentration of 4 μg/mL in 0.1 M pH 9.6 carbonate buffer (Sigma-Aldrich, St. Louis, Mo.), 100 μL/well, for 2 hours at 37° C. The γ-H2AX synthetic peptide standard or a whole-cell extract was added to each well and incubated for antigen capture overnight at 4° C. Plates were incubated with 100 μL/well of 2 μg/mL anti-histone H2AX rabbit polyclonal antibody (Abcam) diluted in 2% bovine serum albumin (BSA)/phosphate buffered saline (PBS) supplemented with 1 μL/mL mouse serum for 2 hours (h) at 24° C. Subsequently, 100 μL/well HRP-conjugated affinity-purified goat anti-rabbit (KPL) was added at a final concentration of 1 μg/mL diluted in 2% BSA/PBS, supplemented with 1 μL/mL mouse serum, and incubated for 1 hour at 24° C. Finally, 100 μL/well of freshly prepared SUPERSIGNAL ELISA Pico chemiluminescent substrate (Thermo Scientific, Waltham, Mass.) was added to the plate and immediately read on a TECAN INFINITE M200 plate reader (Tecan Group Ltr., Maennedorf, Switzerland). […] The average γ-H2AX concentration for each cell extract was then determined using the standard curve (FIG. 1B).
Pierce REACTI-BIND plates (96-well) were coated with total anti-H2A core protein HIST1H2AC monoclonal antibody (Novus, St. Charles, Mo.) diluted to a concentration of 4 μg/mL in 0.1 M pH 9.6 carbonate buffer (Sigma-Aldrich), 100 μL/well, for 2 hours at 37° C. […] Finally, 100 μL/well of freshly prepared SUPERSIGNAL ELISA Pico chemiluminescent substrate (Thermo Scientific) was added to the plate and immediately read on a TECAN INFINITE M200 plate reader. […] The average total H2AX concentration for each cell extract was then determined using the standard curve (FIG. 2B).
HT29 cells were treated with the genotoxic agent camptothecin (CPT) or the non-genotoxic agent rhomidepsin for 1 hour at a concentration of 0 (vehicle) 0.001, 0.001, 0.01, 1 or 10 μM. […] DNA DSB, as measured by the ratio of γ-H2AX to total H2AX, was detected with CPT treatment as low as 1 nM. […]

[2] = tested on: γ-H2AX in HT29 or MCF7 cells; assay: Microscope staining with labeled anti-γ-H2AX antibody (IFA) of cells treated as in Example 14; format: cell-based, human; settings: 10 nM, 100 nM, 1 μM and 10 μM CPT; intensity increased with concentration
Source text: The presence of γ-H2AX in the cells treated as described in Example 14 was confirmed by staining using a labeled anti-γ-H2AX antibody and observing the intensity of the staining through a microscope. […] The staining intensity increased as the concentration of CPT used to treat the cells increased.
The γ-H2AX in the cells treated as described in Example 14 was quantified by staining using a labeled anti-γ-H2AX antibody and measuring the intensity of the staining observed through a microscope (immunofluorescence microscope assay (IFA)). The quantity of γ-H2AX measured by staining intensity was compared to the ratio of γ-H2AX to total H2AX measured by the immunoassays (IA) of Examples 1 and 2. The results are shown in FIG. 18A (HT29) and FIG. 18B (MCF7).

γ-H2AX in HCT116 cells [3] = assay: γ-H2AX detection by Western blot in treated HCT116 cell cultures; format: cell-based, human
Protocol: (§1) Human […] cancer cell lines HCT 116 or MCF 7 (ATCC) were cultured with 10% fetal bovine serum at 37° C. in a 5% CO2 incubator. The cells were treated with the topoisomerase I inhibitor topotecan, the apoptosis-inducing biomolecule tumor necrosis factor (TNF)-related apoptosis-inducing ligand (TRAIL), or IR. The γ-H2AX immunoassay (γ-H2AX ELISA) was compared with γ-H2AX detection by both Western blot and immunofluorescence assay (IFA).
(§2) The ELISA detected changes in γ-H2AX in HCT116 cell cultures induced by a variety of treatments in vitro and was overall highly correlated to both IFA and Western blot following treatment with topotecan or TRAIL (Table 6).

γ-H2AX in HCT116 cells [4] = assay: γ-H2AX detection by immunofluorescence assay (IFA) in treated HCT116 cell cultures; format: cell-based, human
Protocol: as §1, §2

γ-H2AX in HCT116 cells [5] = assay: γ-H2AX immunoassay (γ-H2AX ELISA) in treated HCT116 cell cultures; format: cell-based, human
Protocol: Pierce REACTI-BIND plates (96-well) (Thermo Scientific) were coated with anti-7-H2AX antibody (Millipore) diluted to a concentration of 4 μg/mL in 0.1 M pH 9.6 carbonate buffer (Sigma-Aldrich, St. Louis, Mo.), 100 μL/well, for 2 hours at 37° C. The γ-H2AX synthetic peptide standard or a whole-cell extract was added to each well and incubated for antigen capture overnight at 4° C. Plates were incubated with 100 μL/well of 2 μg/mL anti-histone H2AX rabbit polyclonal antibody (Abcam) diluted in 2% bovine serum albumin (BSA)/phosphate buffered saline (PBS) supplemented with 1 μL/mL mouse serum for 2 hours (h) at 24° C. Subsequently, 100 μL/well HRP-conjugated affinity-purified goat anti-rabbit (KPL) was added at a final concentration of 1 μg/mL diluted in 2% BSA/PBS, supplemented with 1 μL/mL mouse serum, and incubated for 1 hour at 24° C. Finally, 100 μL/well of freshly prepared SUPERSIGNAL ELISA Pico chemiluminescent substrate (Thermo Scientific, Waltham, Mass.) was added to the plate and immediately read on a TECAN INFINITE M200 plate reader (Tecan Group Ltr., Maennedorf, Switzerland). A standard curve was generated by plotting the RLU (relative light unit) values that were obtained for a range of concentrations of the γ-H2AX standard peptide (FIG. 1A). The average γ-H2AX concentration for each cell extract was then determined using the standard curve (FIG. 1B).
as §1, §2

Molecule: C[C@]1(c2nc3c(C(N)=O)cccc3[nH]2)CCCN1 [ABT-888]
- induction of γ-H2AX (DNA DSB) in combination with CPT-11 (A375 xenografts): synergistic induction of γ-H2AX

Molecule: O=C(c1cc(Cc2n[nH]c(=O)c3ccccc23)ccc1F)N1CCN(C(=O)C2CC2)CC1 [AZD2281]
- induction of γ-H2AX (DNA DSB) in combination with CPT-11 (A375 xenografts): synergistic induction of γ-H2AX
- γ-H2AX induction (ratio of γH2AX to total H2AX) ([1]; 50 or 6.25 units AZD2281 IP in combination with irinotecan 7.5 units IV, particularly at 4 hours after administration): induced substantially more γ-H2AX

Molecule: C[C@@H]1COCCN1c1cc(C2([S@](C)(=N)=O)CC2)nc(-c2cc[nH]c3nccc2-3)n1 [AZD-6738]
- synergy for γ-H2AX induction in combination with the Top1 inhibitor SN38 (MCF7 cells): highest synergy

Molecule: CC[C@@]1(O)C(=O)OCc2c1cc1n(c2=O)Cc2cc3ccccc3nc2-1 [CPT, camptothecin]
- concentration at which DNA DSB, as measured by the ratio of γ-H2AX to total H2AX, was detected (HT29 cells; 1 hour treatment): ≥ 1 nM
- concentration giving a detectable signal of DNA DSB (ratio of γ-H2AX to total H2AX) (HT29 cells; 1 hour, with as few as 160 cells per assay): ≥ 0.01 µM
- staining with labeled anti-γ-H2AX antibody [2]: Staining was observed

Molecule: NC(=O)c1cccc2cn(-c3ccc([C@@H]4CCCNC4)cc3)nc12 [MK-4827]
- induction of γ-H2AX (DNA DSB) in combination with CPT-11 (A375 xenografts): synergistic induction of γ-H2AX

Molecule: Nc1nc(N)c(N=O)c(OCC2CCCCC2)n1 [NU-6027]
- synergy for γ-H2AX induction in combination with the Top1 inhibitor SN38 (MCF7 cells): none

Molecule: CC[C@@]1(O)C(=O)OCc2c1cc1n(c2=O)Cc2cc3c(CN(C)C)c(O)ccc3nc2-1 [Topotecan, topotecan]
- γ-H2AX Western Blot (γ-H2AX in HCT116 cells [3]; Topotecan 1 μM, 0 hr): 4.7 RLU
- γ-H2AX Western Blot (γ-H2AX in HCT116 cells [3]; Topotecan 1 μM, 1 hr): 8.1 RLU
- γ-H2AX Western Blot (γ-H2AX in HCT116 cells [3]; Topotecan 1 μM, 3 hr): 6.9 RLU
- γ-H2AX Western Blot (γ-H2AX in HCT116 cells [3]; Topotecan 1 μM, 6 hr): 14.3 RLU
- γ-H2AX IFA (γ-H2AX in HCT116 cells [4]; Topotecan 1 μM, 0 hr): 0.7 RLU
- γ-H2AX IFA (γ-H2AX in HCT116 cells [4]; Topotecan 1 μM, 1 hr): 23.0 RLU
- γ-H2AX IFA (γ-H2AX in HCT116 cells [4]; Topotecan 1 μM, 3 hr): 43.9 RLU
- γ-H2AX IFA (γ-H2AX in HCT116 cells [4]; Topotecan 1 μM, 6 hr): 51.2 RLU
- γ-H2AX ELISA (γ-H2AX in HCT116 cells [5]; Topotecan 1 μM, 0 hr): 124 pM
- γ-H2AX ELISA (γ-H2AX in HCT116 cells [5]; Topotecan 1 μM, 1 hr): 2536 pM
- γ-H2AX ELISA (γ-H2AX in HCT116 cells [5]; Topotecan 1 μM, 3 hr): 3134 pM
- γ-H2AX ELISA (γ-H2AX in HCT116 cells [5]; Topotecan 1 μM, 6 hr): 4793 pM

Molecule: CNCc1ccc(-c2cc(-c3nc(-c4ccc(S(=O)(=O)C(C)C)cc4)cnc3N)on2)cc1 [VE-822]
- synergy for γ-H2AX induction in combination with the Top1 inhibitor SN38 (MCF7 cells): highest synergy

Molecule: CCc1c2c(nc3ccc(OC(=O)N4CCC(N5CCCCC5)CC4)cc13)-c1cc3c(c(=O)n1C2)COC(=O)[C@]3(O)CC [irinotecan]
- γ-H2AX induction (ratio of γH2AX to total H2AX) ([1]; irinotecan 7.5 units IV alone, MX1 tumor biopsies, nude mice): induced γ-H2AX modestly

Molecule: C/C=C1\NC(=O)[C@H]2CSSCC/C=C/[C@H](CC(=O)N[C@H](C(C)C)C(=O)N2)OC(=O)[C@H](C(C)C)NC1=O [rhomidepsin]
- DNA DSB, as measured by the ratio of γ-H2AX to total H2AX (HT29 cells; 1 hour, even at a concentration as high as 10 μM): no DNA DSB

B1: TRAIL: apoptosis-inducing biomolecule tumor necrosis factor (TNF)-related apoptosis-inducing ligand (protein, UniProt P50591 1-281, looked up)
Tumor necrosis factor ligand …: MAMMEVQGGPSLGQTCVLIVIFTVLLQSLCVAVTYVYFTNELKQMQDKYSKSGIACFLKEDDSYWDPNDEESMNSPCWQVKWQLRQLVRKMILRTSEETISTVQEKQQNISPLVRERGPQRVAAHITGTRGRSNTLSSPNSKNEKALGRKINSWESSRSGHSFLSNLHLRNGELVIHEKGFYYIYSQTYFRFQEEIKENTKNDKQMVQYIYKYTSYPDPILLMKSARNSCWSKDAEYGLYSIYQGGIFELKENDRIFVSVTNEHLIDMDHEASFFGAFLVG
- γ-H2AX Western Blot (γ-H2AX in HCT116 cells [3]; TRAIL 0.1 μg/mL, 0 hr): 2.7 RLU
- γ-H2AX Western Blot (γ-H2AX in HCT116 cells [3]; TRAIL 0.1 μg/mL, 1 hr): 17.3 RLU
- γ-H2AX Western Blot (γ-H2AX in HCT116 cells [3]; TRAIL 0.1 μg/mL, 3 hr): 45.8 RLU
- γ-H2AX Western Blot (γ-H2AX in HCT116 cells [3]; TRAIL 0.1 μg/mL, 6 hr): 43.5 RLU
- γ-H2AX IFA (γ-H2AX in HCT116 cells [4]; TRAIL 0.1 μg/mL, 0 hr): 2.0 RLU
- γ-H2AX IFA (γ-H2AX in HCT116 cells [4]; TRAIL 0.1 μg/mL, 1 hr): 34.5 RLU
- γ-H2AX IFA (γ-H2AX in HCT116 cells [4]; TRAIL 0.1 μg/mL, 3 hr): 72.2 RLU
- γ-H2AX IFA (γ-H2AX in HCT116 cells [4]; TRAIL 0.1 μg/mL, 6 hr): 49.6 RLU
- γ-H2AX ELISA (γ-H2AX in HCT116 cells [5]; TRAIL 0.1 μg/mL, 0 hr): 134 pM
- γ-H2AX ELISA (γ-H2AX in HCT116 cells [5]; TRAIL 0.1 μg/mL, 1 hr): 2764 pM
- γ-H2AX ELISA (γ-H2AX in HCT116 cells [5]; TRAIL 0.1 μg/mL, 3 hr): 9276 pM
- γ-H2AX ELISA (γ-H2AX in HCT116 cells [5]; TRAIL 0.1 μg/mL, 6 hr): 7703 pM
